“And” between values parts separate entries of the source, which are not always exact repeats. Identical values can stand only once. “Also recorded” adds a separate entry of the source.
Tests used:
Format in all cases: in vivo, human
[1] = test system: peripheral T-cell lymphoma (PTCL); test: Phase II clinical study of tipifarnib in relapsed or refractory PTCL patients; parameters: key to Response: PR: partial response; SD: stable disease; PD: progressive disease
Text: A Phase II clinical study of tipifarnib can be conducted with the primary objective being to assess the antitumor activity of tipifarnib, in terms of Objective Response Rate (ORR) in subjects with relapsed or refractory advanced peripheral T-cell lymphoma (PTCL). Determination of objective tumor response can be performed by the International Workshop Criteria (IWC) and/or measurable cutaneous disease according to the modified Severity Weighted Assessment Tool (mSWAT). Secondary objectives can include accessing the effect of tipifarnib on rate of progression-free survival (PFS) at 1 year, duration of response (DOR), overall survival (OS); and safety and tolerability of tipifarnib.
This Phase II study investigates the antitumor activity in terms of ORR of tipifarnib in subjects with PTCL. Up to 18 eligible subjects with advanced PTCL are enrolled. The total number of patients can be extended to 30.
Subjects receive tipifarnib administered at a starting dose of 900 mg, orally with food, twice a day (bid) for 7 days in alternating weeks (Days 1-7 and 15-21) in 28 day cycles. At the discretion of the investigator, the dose of tipifarnib can be increased to 1200 mg bid if the subject has not experienced dose limiting toxicities at the 900 mg dose level. Subjects who develop serious adverse events (SAE) or ≥grade 2 treatment-emergent adverse events (TEAE) that are deemed related to tipifarnib and lasting ≥14 days will not undergo dose escalation. Stepwise 300 mg dose reductions to control treatment-related, treatment-emergent toxicities are also allowed.
In the absence of unmanageable toxicities, subjects can continue to receive tipifarnib treatment until disease progression. If a complete response is observed, therapy with tipifarnib can be maintained for at least 6 months beyond the start of response.
Tumor assessments are performed at screening and at least once every approximately 8 weeks for 6 months (cycles 2, 4, 6) and once every approximately 12 weeks (cycles 9, 12, 15, etc.) thereafter, until disease progression, starting at the end of Cycle 2. Additional tumor assessments can be conducted if deemed necessary by the Investigator. Subjects who discontinue tipifarnib treatment for reasons other than disease progression must continue tumor assessments until disease progression, withdrawal of subject's consent to study
The study was an eighteen patient Phase II study with a Simon two-stage design (11+7). Two responses were required after the first eleven evaluable patients in order to proceed to second stage. Enrollment is to be extended to thirty patients if five responses are seen in the first stage.
The dose of 900 mg b.i.d. for seven days in alternate week dosing was amended during the first stage to 600 mg b.i.d. for seven days in alternate week dosing.
Formalin-fixed, paraffin-embedded (FFPE) samples were obtained from all subjects for the analysis of gene expression using RNA Seq and of single nucleotide variation (SNV, including SNPs and mutations) using next generation sequencing (NGS). Thirteen samples passed quality control (QC) for expression analysis. Sixteen samples passed quality control for SNV analysis.
This example describes a Phase 2 study (ClinicalTrials.gov Identifier: NCT02464228) designed to investigate the antitumor activity of tipifarnib in 18 patients with relapsed or refractory PTCL, and certain results of the study.
Primary outcome measures: Objective Response Rate (ORR) by the International Workshop Criteria (IWC) and/or measurable cutaneous disease according to the modified Severity Weighted Assessment Tool (mSWAT). Secondary outcome measures include the effect of tipifarnib on rate of progression-free survival (PFS) at 1 year, duration of response (DOR); and safety and tolerability of tipifarnib.
Study Design: oral tipifarnib 300 mg twice daily (bid) on days 1-21 of 28-day treatment cycles. A Simon two-stage design for ORR. […]

[2] = test system: relapsed and refractory AML; test: INT-17 trial, Phase 2, tipifarnib, analysed by CXCR4 expression; conditions: relapsed or refractory AML patients, highest quintile of CXCR4 expression
Protocol: (§1) Previous clinical studies with tipifarnib were performed in newly diagnosed AML in elderly patients with poor risk AML (CTEP-20, Phase 2) or relapsed and refractory AML (INT-17, Phase 2). In these studies, patient selection was not based on genetic markers. Anecdotal evidence of tipifarnib single agent activity was reported.

[3] = test system: newly diagnosed AML in elderly patients with poor risk AML; test: CTEP-20 trial, Phase 2, tipifarnib, analysed by CXCL12 expression
Protocol: as §1

[4] = Grade ≥3 drug-related TEAEs, % of pts

Cn1cncc1[C@@](N)(c1ccc(Cl)cc1)c1ccc2c(c1)c(-c1cccc(Cl)c1)cc(=O)n2C [tipifarnib]
Median overall PFS ([1]; 5th line, all subjects with NGS data, reference and variant CXCL12 3′ UTR): 53 days
HR (PFS) ([1]; CXCL12/CXCR4 ratio >0.200 versus ≤0.200, P=0.004): 0.22
anemia [1, 4]: 32%
febrile neutropenia [1, 4]: 32%
leukopenia [1, 4]: 47%
lymphopenia [1, 4]: 16%
neutropenia [1, 4]: 74%
thrombocytopenia [1, 4]: 58%
Safety and Tolerability ([1]; PTCL patients, overall statement): consistent with known safety profile; also recorded: generally well-tolerated
Response ([1]; Table 1, one line per subject 1-18, PTCL patients, 900 mg b.i.d. amended to 600 mg b.i.d., seven days in alternate weeks): PR (3×) and PD (11×) and SD (4×)
Response ([1]; Table 2, RNA Seq Experiment#1, one cell per patient (2002, 2004, 3002, 4001, 2001, 4004)): PD (3×) and SD (2×) and PR
Response ([1]; Table 3, RNA Seq Experiment#2, one cell per patient (2005, 2006, 4005, 4006, 4007, 6003, 2007)): PD (5×) and SD and PR
median duration of durable responses ([1]; cohort of PTCL patients of Example II): 11 months
median time to progression ([1]; five patients with tumor size reductions, associated with elevated CXCL12 expression (p<0.001)): > 6 mo
HR (PFS) ([1]; high versus low CXCL12 expression, FIG. 13A, p=0.0015): 0.22
Discontinuation for Progressive Disease ([1]; of 17 discontinuations): 16 n
mPFS ([1]; patients with CXCL12 3′ UTR SNV rs2839695, N=7, first time point (FIG. 4)): 48 days
median progression free survival (mPFS) ([1]; patients with CXCL12/CXCR4 ratio >0.200 (N=5)): 189 days
median progression free survival (mPFS) ([1]; patients with CXCL12/CXCR4 ratio ≤0.200 (N=7)): 51 days
mPFS ([1]; patients with CXCL12 reference 3′ UTR (8 patients), FIG. 12A): 133 days
mPFS ([1]; patients with CXCL12 rs2839695, N=7, later timepoint (FIG. 6)): 50 days
mPFS ([1]; patients with CXCL12 variant 3′ UTR (8 with rs2839695 and 1 novel variant), FIG. 12B): 34 days
mPFS ([1]; patients with no SNV in the 3′ UTR of CXCL12 (reference 3′ UTR), N=8, first time point (FIG. 4)): 189 days
mPFS ([1]; patients with no SNV in the 3′ UTR of CXCL12, N=8, later timepoint (FIG. 6)): 134 days
mPFS ([1]; subjects with high CXCL12 expression, FIG. 13A): 190 days
activity in KIR3DL2-expressing PTCL ([1]; subjects with high KIR3DL2 expression (e.g., over 1000)): no activity
mPFS ([1]; subjects with low CXCL12 expression, FIG. 13A): 49 days
median survival [2]: 182 days
mPFS ([3]; second CXCL12 expression tertile): 89 days
mPFS ([3]; third tertile (lowest level of CXCL12 expression)): 33 days
median progression free survival (mPFS) ([3]; treatment naïve elderly, frail AML patients, highest CXCL12 expression tertile): 431 days

— patent US11541045B2, “Methods of treating cancer with farnesyltransferase inhibitors” (Kura Oncology, Inc., priority 2017, dated 2023)
